Results as given in patent US9364462B2, “Alpha-1-adrenergic receptor agonist therapy” (The Regents of the University of California, priority 2012, dated 2016).

Tests used:
[1] = Learning and memory, Barnes maze, long-term treatment of normal WT mice; type: in vivo, mouse; settings: 9 months, 10 mg/L in drinking water
Protocol: FIG. 18. Long-term alpha-1A agonist therapy improves learning and memory. Normal WT mice were treated 9 months with the alpha-1A agonist cirazoline, 10 mg/L in drinking water, and learning and memory were tested versus control mice using the Barnes maze. Left. […] Right. […] These studies treated mice for long periods with cirazoline, adding it to the drinking water. Mice treated with cirazoline had improvements in tests of learning and of memory (FIG. 18). […] 9 months in a mouse is equivalent to 18 to 27 years in a human.

cardiac myocytes = assay: Cardiac cell protective and adaptive (anabolic) effects in vitro, comparison of alpha-1-agonists; type: cell-based

What does the source list for c1ccc(C2CC2)c(OCC2=NCCN2)c1 [cirazoline]?
memory trials (errors made) [1]: Findings were similar; errors in learning trials ([1]; vs control mice): fewer errors; time to solve in learning trials ([1]; vs control mice): faster to solve; potency and efficacy relative to A61603 (cardiac myocytes; cardiac myocytes, FIG. 1-2): a good bit less potent and efficacious; specificity, potency, efficacy in stimulating anabolic effects in cells relative to A61603 (cardiac myocytes; cells (e.g. cardiac myocytes)): not as specific, potent, or efficacious as A61603
